Experimental findings from patent publication US8304422B2, “Compositions and methods for inhibition of the JAK pathway” (Rigel Pharmaceuticals, Inc., priority 2007, dated 2012) are described below.

Experiment [1] has as its system Ramos B-Cell Line Stimulated with IL-4. The experiment is described as follows: Assay for Ramos B-Cell Line Stimulated with IL-4 (CD23 upregulation, FACS; Example 2). In kind it is cell-based. The note with it: human Ramos B cells, IL-4 50 units/mL for 20-24 hours, anti-CD23-PE. From the text:
One means of assaying for such inhibition is detection of the effect of the 2,4-pyrimidinediamine compounds on the upregulation of downstream gene products. In the Ramos/IL4 assay, B-cells are stimulated with the cytokine Interleukin-4 (IL-4) leading to the activation of the JAK/Stat pathway through phosphorylation of the JAK family kinases, JAK1 and JAK3, which in turn phosphorylate and activate the transcription factor Stat-6. […] To study the effect of inhibitors (e.g., the 2,4-substituted pyrimindinediamine compounds described herein) on the JAK1 and JAK3 kinases, human Ramos B cells are stimulated with human IL-4. 20 to 24 hours post stimulation, cells are stained for upregulation of CD23 and analyzed using flow cytometry (FACS). […] An exemplary assay of this type is described in greater detail in Example 2.
B-cells stimulated with cytokine Interleukin-4 (IL-4) activate the JAK/Stat pathway through phosphorylation of the JAK family kinases, JAK-1 and JAK-3, which in turn phosphorylate and activate the transcription factor Stat-6. […] To study the effect of inhibitors on the JAK family kinases, human Ramos B cells are stimulated with human IL-4.
The Ramos B-cell line was acquired from ATCC (ATCC Catalog No. CRL-1596). The cells were cultured in RPMI 1640 (Cellgro, MediaTech, Inc., Herndon, Va., Cat No. 10-040-CM) with 10% fetal bovine serum (FBS), heat inactivated (JRH Biosciences, Inc, Lenexa, Kans., Cat No. 12106-500M) according to ATCC propagation protocol. Cells were maintained at a density of 3.5×10^5. The day before the experiment, Ramos B-cells were diluted to 3.5×10^5 cells/mL to ensure that they were in a logarithmic growth phase.
Cells were spun down and suspended in RPMI with 5% serum. 5×10^4 cells were used per point in a 96-well tissue culture plate. Cells were pre-incubated with compound or DMSO (Sigma-Aldrich, St. Louis, Mo., Cat No. D2650) vehicle control for 1 hour in a 37° C. incubator.
Cells were then stimulated with IL-4 (Peprotech Inc., Rocky Hill, N.J., Cat No. 200-04) for a final concentration of 50 units/mL for 20-24 hours. Cells were then spun down and stained with anti-CD23-PE (BD Pharmingen, San Diego, Calif., Cat No. 555711) and analyzed by FACS. Detection was performed using a BD LSR I System Flow Cytometer, purchased from Becton Dickinson Biosciences of San Jose, Calif.

For the next experiment, the system named is BaF3 V617F cells; UKE-1. Description: Proliferation Assay (Cell Titer-Glo; Example 7). In kind it is cell-based. The note with it: proliferation 72 hours, inhibit JAK2 activity, cell line (BaF3 V617F or UKE-1) not stated. Summed up:
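BaF3 V617F cells (RPMI, 10% FBS) and UKE-1 cells (Iscove's DMEM, 10% FBS, 10% equine serum, 1 uM hydrocortisone) were exposed to 3-fold serially diluted compound in duplicate for 72 hours at 37 °C. Viable cell number quantified by Cell Titer-Glo luminescence; IC50 reported.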

By IC50 is commonly meant the midpoint of a concentration-inhibition curve. Lower therefore signals greater potency. Turning to `Cc1cnc(Nc2ccc(C(N)=O)cc2)nc1Nc1ccc(CN(C)S(=O)(=O)C2CC2)cc1` [II-19, N2-(4-aminocarbonyl)phenyl-N4-[4-(N-cyclopropylsulfonyl-N-methyl)aminomethyl]phenyl-5-methyl-2,4-pyrimidinediamine], the IC50 came to 106 nM in experiment [1] and 2210 nM in the experiment on BaF3 V617F cells; UKE-1.

Regarding `COc1cc(Nc2ncc(F)c(Nc3ccc(CNS(=O)(=O)C4CC4)cc3)n2)cc(OC)c1OC` [II-1, N4-(4-cyclopropylsulfonylaminomethyl)phenyl-5-fluoro-N2-(3,4,5-trimethoxy)phenyl-2,4-pyrimidinediamine], the IC50 in experiment [1] is 123 nM; in the experiment with BaF3 V617F cells; UKE-1, 405 nM.

As to `Cc1cc(C)cc(Nc2ncc(C)c(Nc3ccc(CN(C)S(=O)(=O)C4CC4)cc3)n2)c1` [II-39, N4-[4-(N-cyclopropylsulfonyl-N-methyl)aminomethyl]phenyl-N2-(3,5-dimethyl)phenyl-5-methyl-2,4-pyrimidinediamine], the IC50 in experiment [1] was 327 nM; in the experiment with BaF3 V617F cells; UKE-1 it was 2040 nM.

Consider `Cc1cnc(Nc2ccc(C#N)cc2)nc1Nc1cccc(CNS(=O)(=O)C2CC2)c1` [II-25, N2-(4-cyano)phenyl-N4-(3-cyclopropylsulfonylaminomethyl)phenyl-5-methyl-2,4-pyrimidinediamine], for which the figures for the IC50 (in experiment [1]; in the experiment on BaF3 V617F cells; UKE-1) were 142 nM and 2300 nM, respectively.

Regarding `O=C(NCCN1CCOCC1)n1ccc2ccc(Nc3ncc(F)c(Nc4ccc(CNS(=O)(=O)C5CC5)cc4)n3)cc21` [III-2, N4-[4-(Cyclopropylsulfonylaminomethyl)phenyl]-5-fluoro-N2-[1-(2-(N-morpholino)ethylaminocarbonyl)indol-6-yl]-2,4-pyrimidinediamine], the IC50 was found to be 911 nM in experiment [1] and 6180 nM with BaF3 V617F cells; UKE-1.

As to `Cc1cnc(Nc2cccc(C(N)=O)c2)nc1Nc1cccc(CN(C)S(=O)(=O)C2CC2)c1` [II-22, N2-(3-aminocarbonyl)phenyl-N4-[3-(N-cyclopropylsulfonyl-N-methyl)aminomethyl]phenyl-5-methyl-2,4-pyrimidinediamine], the IC50 in experiment [1] is 302 nM; in the experiment on BaF3 V617F cells; UKE-1, 2690 nM.

For `Cc1cc(C)cc(Nc2ncc(Cl)c(Nc3ccc(CNS(=O)(=O)C4CC4)cc3)n2)c1` [II-36, 5-chloro-N4-(4-cyclopropylsulfonylaminomethyl)phenyl-N2-(3,5-dimethyl)phenyl-2,4-pyrimidinediamine], the half-inhibitory concentration (IC50) in experiment [1] was 38.1 nM; with BaF3 V617F cells; UKE-1 it was 599 nM.

Regarding `Cc1cnc(Nc2ccc(C(N)=O)cc2)nc1Nc1ccc(CNS(=O)(=O)C2CC2)cc1` [II-31, N2-(4-aminocarbonyl)phenyl-N4-(4-cyclopropylsulfonylaminomethyl)phenyl-5-methyl-2,4-pyrimidinediamine], the IC50 in experiment [1] was 35.7 nM; in the experiment with BaF3 V617F cells; UKE-1, 2130 nM.

Consider `COc1cc(Nc2ncc(C)c(Nc3ccc(CNS(=O)(=O)C4CC4)cc3)n2)cc(OC)c1OC` [II-9, N4-(4-cyclopropylsulfonylaminomethyl)phenyl-5-methyl-N2-(3,4,5-trimethoxy)phenyl-2,4-pyrimidinediamine], for which the IC50 amounted to 82.6 nM in experiment [1] and 408 nM with BaF3 V617F cells; UKE-1.

For the compound `Cc1cc(C)cc(Nc2ncc(C)c(Nc3ccc4c(c3)CCN(S(=O)(=O)C3CC3)C4)n2)c1` [VIII-7, N4-[(N-cyclopropylsulfonyl)-1,2,3,4-tetrahydroisoquinolin-6-yl]-N2-(3,5-dimethyl)phenyl-5-methyl-2,4-pyrimidinediamine], the IC50 came to 110 nM in experiment [1] and 478 nM in the experiment with BaF3 V617F cells; UKE-1.

For the compound `Cc1nc2cc(Nc3ncc(Cl)c(Nc4ccc(CNS(=O)(=O)C5CC5)cc4)n3)ccc2[nH]1` [III-6, 5-chloro-N4-(4-cyclopropylsulfonylaminomethyl)phenyl-N2-(2-methylbenzoimidazol-5-yl)-2,4-pyrimidinediamine], the IC50 was 26.6 nM in experiment [1] and 1450 nM in the experiment on BaF3 V617F cells; UKE-1.

Consider `Cc1cnc(Nc2cccc(C#N)c2)nc1Nc1ccc(CNS(=O)(=O)C2CC2)cc1` [II-34, N2-(3-cyano)phenyl-N4-(4-cyclopropylsulfonylaminomethyl)phenyl-5-methyl-2,4-pyrimidinediamine], for which the figures for the IC50 (in experiment [1]; with BaF3 V617F cells; UKE-1) were 45.5 nM and 460 nM, respectively.

Turning to `Cc1nc2cc(Nc3ncc(F)c(Nc4ccc(CNS(=O)(=O)C5CC5)cc4)n3)ccc2[nH]1` [III-5, N4-(4-cyclopropylsulfonylaminomethyl)phenyl-5-fluoro-N2-(2-methylbenzoimidazol-5-yl)-2,4-pyrimidinediamine], the IC50 in experiment [1] was determined as 178 nM; in the experiment with BaF3 V617F cells; UKE-1, 6310 nM.

With `Cc1cnc(Nc2ccc(C(N)=O)cc2)nc1Nc1cccc(CN(C)S(=O)(=O)C2CC2)c1` [II-21, N2-(4-aminocarbonyl)phenyl-N4-[3-(N-cyclopropylsulfonyl-N-methyl)aminomethyl]phenyl-5-methyl-2,4-pyrimidinediamine], the IC50 in experiment [1] was 110 nM; with BaF3 V617F cells; UKE-1, 479 nM.

`Cc1cnc(Nc2ccc3c(c2)nc(C)n3C)nc1Nc1ccc(CNS(=O)(=O)C2CC2)cc1` [IV-7, N4-(4-cyclopropylsulfonylaminomethyl)phenyl-N2-(1,2-dimethylbenzoimidazol-5-yl)-5-methyl-2,4-pyrimidinediamine]: the IC50 in experiment [1] turned out to be 116 nM; in the experiment on BaF3 V617F cells; UKE-1 it was 796 nM.

Take `NC(=O)c1ccc(Nc2ncc(Cl)c(Nc3ccc(CNS(=O)(=O)C4CC4)cc3)n2)cc1` [II-37, N2-(4-aminocarbonyl)phenyl-5-chloro-N4-(4-cyclopropylsulfonylaminomethyl)phenyl-2,4-pyrimidinediamine]: the IC50 stood at 18.3 nM in experiment [1] and 875 nM in the experiment with BaF3 V617F cells; UKE-1.

Take `CCN1CCN(c2ccc(Nc3ncc(F)c(Nc4ccc(CNS(=O)(=O)C5CC5)cc4)n3)cc2C)CC1` [II-6, N4-(4-cyclopropylsulfonylaminomethyl)phenyl-N2-[4-(4-ethylpiperazino)-3-methyl]phenyl-5-fluoro-2,4-pyrimidinediamine]: the figures for the IC50 (in experiment [1]; in the experiment on BaF3 V617F cells; UKE-1) were 36.4 nM and 138 nM, respectively.

For `Cc1cnc(Nc2cccc(C#N)c2)nc1Nc1cccc(CNS(=O)(=O)C2CC2)c1` [II-26, N2-(3-cyano)phenyl-N4-(3-cyclopropylsulfonylaminomethyl)phenyl-5-methyl-2,4-pyrimidinediamine], the results for the IC50 (in experiment [1]; in the experiment on BaF3 V617F cells; UKE-1) were 146 nM and 2240 nM, respectively.

In experiment [1], `Cc1cnc(Nc2ccc(C#N)cc2)nc1Nc1ccc(CN(C)S(=O)(=O)C2CC2)cc1` [II-27, N2-(4-cyano)phenyl-N4-[4-(N-cyclopropylsulfonyl-N-methyl)aminomethyl]phenyl-5-methyl-2,4-pyrimidinediamine] returned an IC50 of 89200 nM.

Turning to `Cc1cnc(Nc2ccc3[nH]c(CN4CCOCC4)nc3c2)nc1Nc1ccc(CNS(=O)(=O)C2CC2)cc1` [IV-6, N4-(4-cyclopropylsulfonylaminomethyl)phenyl-5-methyl-N2-[2-(morpholin-4-yl)methylbenzoimidazol-5-yl]-2,4-pyrimidinediamine], it took 207 nM to reach half-maximal inhibition in experiment [1] (IC50).

On to `Cc1cnc(Nc2ccc3[nH]c(-c4cccs4)nc3c2)nc1Nc1ccc(CNS(=O)(=O)C2CC2)cc1` [IV-5, N4-(4-cyclopropylsulfonylaminomethyl)phenyl-5-methyl-N2-[2-(thien-2-yl)benzoimidazol-5-yl]-2,4-pyrimidinediamine], for which the 50% inhibitory concentration (IC50) in experiment [1] came to 87.3 nM.

In experiment [1], `CS(=O)(=O)N1CCc2cc(Nc3nc(Nc4ccc5nc(C(F)(F)F)[nH]c5c4)ncc3F)ccc21` [VIII-4, 5-Fluoro-N4-[(1-methylsulfonyl)indolin-5-yl]-N2-(2-trifluoromethylbenzimidazol-5-yl)-2,4-pyrimidinediamine] came in with an IC50 of 242 nM.

`Cc1cnc(Nc2cccc(C(N)=O)c2)nc1Nc1cccc(CNS(=O)(=O)C2CC2)c1` [II-24, N2-(3-aminocarbonyl)phenyl-N4-(3-cyclopropylsulfonylaminomethyl)phenyl-5-methyl-2,4-pyrimidinediamine] gave an IC50 in experiment [1] of 280 nM.

In experiment [1], `C#CCNS(=O)(=O)c1ccc(Nc2nc(Nc3cc(C)c(OC)c(C)c3)ncc2F)cc1` [I-5, N2-(3,5-Dimethyl-4-methoxyphenyl)-5-fluoro-N4-[4-(prop-2-ynylaminosulfonyl)phenyl]-2,4-pyrimidinediamine] displayed an IC50 of 31.6 nM.
